ChEMBL document CHEMBL1158899, “Synthesis and structure-phytotoxicity relationships of acetylenic phenols and chromene metabolites, and their analogues, from the grapevine pathogen Eutypa lata” (J Nat Prod, 2003)

What was measured:
[1] = system: Vitis vinifera; test: Phytotoxicity against grape leaf assessed as decrease in chlorophyll level after 64 hrs by leaf disk assay relative to control; type: organism-based; set-up: scale not given: the % may be the effect or the level left; details: in vivo
[2] = system: Vitis vinifera; test: Phytotoxicity against grape leaf by leaf disk assay; type: organism-based; details: in vivo

| Compound | Activity [1] [%] | Activity [2] |
| --- | --- | --- |
| CC1(C)C=Cc2cc(CO)ccc2O1 [EULATACHROMENE] | 60 | – |
| C=C(C)C#Cc1cc(C=O)ccc1O [EUTYPINE] | – | Active |
| C=C(C)C#Cc1cc(O)ccc1O [SICCAYNE] | – | Not Active |
